Assay results from paper PMC5323433 (The pharmacogenomics journal, 2016).

How the values were obtained:
[1] = Steady-state plasma exemestane concentration two hours after dosing; assay type: in vivo, human; settings: for Relative % change per variant allele (95% CI): additive model
[2] = cited from earlier work
breast cancer = settings: letrozole compared to placebo in 352 minority patients, p=0.53; cited from earlier work
[3] = CYP3A4*22 rs35599367, oral 25 mg/day, 2 h post-dose

Q: For `C=C1C[C@@H]2[C@H](CC[C@]3(C)C(=O)CC[C@@H]23)[C@@]2(C)C=CC(=O)C=C12` [exemestane], which “Median Exemestane Concentration” value ([1]; 1st Tertile (CrCl > 108.5 mL/min), 2 h post-dose) is on record?
A: 5.9 ng/mL

Q: What about the “Relative % Change Compared with Reference (95% Confidence Interval)” value ([1]; 2nd CrCl tertile vs 1st tertile (reference)) of the same molecule?
A: +42.9% (8.3%–88.5%)

Q: What about the “Median Exemestane Concentration” value ([1]; 2nd Tertile (83.0 < CrCl ≤ 108.5), 2 h post-dose) of the same molecule?
A: 8.6 ng/mL

Q: And the “Relative % Change Compared with Reference (95% Confidence Interval)” value ([1]; 3rd CrCl tertile vs 1st tertile (reference))?
A: +51.1% (14.5%–99.5%)

Q: And the “Median Exemestane Concentration” value ([1]; 3rd Tertile (CrCl ≤ 83.0 mL/min), 2 h post-dose)?
A: 8.0 ng/mL

Q: And the “Relative % change per variant allele (95% CI)” value ([1]; AKR1C4 Leu311Val rs17134592)?
A: −8% (−25%, 13%)

Q: And the “Relative % change per variant allele (95% CI)” value ([1]; AKR7A2 A142T rs1043657)?
A: −1% (−22%, 26%)

Q: And the “Relative % Change (95% Confidence Interval)” value ([1]; Age, per year increase)?
A: +0.8% (−0.4%, 2%)

Q: And the “Relative % Change (95% Confidence Interval)” value ([1]; BMI, per unit increase)?
A: −1.5% (−3%, 0%)

Q: What about the “Relative % Change Compared with Reference (95% Confidence Interval)” value ([1]; Black vs White (reference)) of the same molecule?
A: −32.2% (−52.1%–−4.0%)

Q: What about the “Relative % change per variant allele (95% CI)” value ([1]; CYP1A1 15:74724835 rs2606345) of the same molecule?
A: 0% (−13%, 15%)

Q: What about the “Relative % change per variant allele (95% CI)” value ([1]; CYP1A1*2 rs4646903) of the same molecule?
A: +16% (−7%, 46%)

Q: What about the “Relative % change per variant allele (95% CI)” value ([1]; CYP1B1 2:38080367 rs162555) of the same molecule?
A: 6% (−11%, 26%)

Q: What about the “Relative % change per variant allele (95% CI)” value ([1]; CYP1B1 Ala119Ser rs1056827) of the same molecule?
A: −1% (−15%, 16%)

Q: What about the “Relative % change per variant allele (95% CI)” value ([1]; CYP1B1 Arg48Gly rs10012) of the same molecule?
A: −4% (−18%, 12%)

Q: What about the “Relative % change per variant allele (95% CI)” value ([1]; CYP3A4*1G rs2242480) of the same molecule?
A: −4% (−20%, 15%)

Q: What about the “Median Concentration (range), Heterozygous” value [1, 3] of the same molecule?
A: 10.7 (2.8 – 72.0) ng/mL

Q: What about the “Median Concentration (range), Homozygous Wild-type” value [1, 3] of the same molecule?
A: 7.7 (2.5 – 42.2) ng/mL

Q: What about the “Relative % change per variant allele (95% CI)” value ([1]; CYP4A11 −845A/G rs9332978) of the same molecule?
A: +14% (−15%, 51%)

Q: What about the “Patients with concentration <LLOQ” value ([1]; LLOQ 2.5 ng/mL, 26 of 246 patients) of the same molecule?
A: 10.6%

Q: And the “Median Exemestane Concentration” value ([1]; Sample Collection Time 1 month, 2 h post-dose)?
A: 6.0 ng/mL

Q: What about the “Median Exemestane Concentration” value ([1]; Sample Collection Time 3 month, 2 h post-dose) of the same molecule?
A: 8.0 ng/mL

Q: What about the “Relative % Change Compared with Reference (95% Confidence Interval)” value ([1]; elevated aminotransferases Yes vs No (reference)) of the same molecule?
A: +42.9% (0.6%, 103%)

Q: What about the “Decrease in exemestane concentration per unit increase in BMI” value ([1]; per unit increase in BMI) of the same molecule?
A: 1.5%

Q: What about the “Greater exemestane exposure in patients with hepatic impairment” value ([2]; hepatic impairment based on Child-Pugh grade) of the same molecule?
A: 2–3 fold

Q: And the “Greater exemestane exposure in patients with renal impairment” value ([2]; renal impairment)?
A: 2–3 fold

Q: Which “Disease free survival hazard ratio” value (breast cancer) does the source give for `N#Cc1ccc(C(c2ccc(C#N)cc2)n2cncn2)cc1` [letrozole] here?
A: 1.39
